In patent publication US20170114029A1, “TREATMENT OF CHAGAS DISEASE” (UNIVERSITY OF DUNDEE, priority 2014, published 2017):
≈ marks a conversion by molar mass, not a printed value. Like-named read-outs stand apart in the source and are kept apart here.

Test system: T. cruzi Tulahuen strain C2C4
Assay: Activity against T. cruzi (beta-galactosidase expressing parasites in L-6 cells)
Format: cell-based, Trypanosoma cruzi
Details: for IC50: Trypanosoma cruzi, TULAHUEN
Protocol: Activity against T. cruzi. Rat skeletal myoblasts (L-6 cells) were seeded in 96-well microtitre plates at 2000 cells/well in 100 μL RPMI 1640 medium with 10% FBS and 2 mM 1-glutamine. After 24 h the medium was removed and replaced by 100 μl per well containing 5000 trypomastigote forms of T. cruzi Tulahuen strain C2C4 containing the […] (Lac Z) gene (Buckner et al. 1996). After 48 h the medium was removed from the wells and replaced by 100 μl fresh medium with or without a serial drug dilution of eleven 3-fold dilution steps covering a range from 100 to 0.002 μg/ml. After 96 h of incubation the plates were inspected under an inverted microscope to assure growth of the controls and sterility. Then the substrate CPRG/Nonidet (50 μl) was added to all wells. A color reaction developed within 2-6 h and could be read photometrically at 540 nm. Data were analyzed with the graphic programme Softmax Pro (Molecular Devices), which calculated IC50 values by linear regression (Huber 1993) from the sigmoidal dose inhibition curves. Benznidazole is used as control (IC50 0.5±0.2 ug/ml). • Buckner, F. S., C. L. Verlinde, A. C. La Flamme, and W. C. Van Voorhis. 1996. Efficient technique for screening drugs for activity against Trypanosoma cruzi using parasites expressing beta-galactosidase, p. 2592-2597, vol. 40. • Huber, W. Koella, J. C. 1993. A comparison of the three methods of estimating EC50 in studies of drug resistance of malaria parasites. Acta Trop. 55, 257-261.

[1] = L6, in Rattus norvegicus, 96 h, trypomastigotes in rat skeletal myoblasts (L-6 cells), 96 h incubation, CPRG/Nonidet read at 540 nm, read-out: Activity (IC50)

| SMILES | IC50 [1] [µg/mL] | further results |
| --- | --- | --- |
| CC(=O)Nc1ccc2[nH]c(=O)n(C3C4CC5CC(C4)CC3C5)c(=O)c2c1 (stereo not shown) [Example 51, N-(3-((1r,3r,5r,7r)-adamantan-2-yl)-2,4-dioxo-1,2,3,4-tetrahydroquinazolin-6-yl)acetamide] | 0.178 (≈ 0.504 µM) |  |
| CC(C)(C)C1CCC(n2c(=O)[nH]c3ccc(N)cc3c2=O)CC1 (racemic) [23b (rac), 6-amino-3-(4-tert-butyl-cyclohexyl)-1H-quinazoline-2,4-dione] | 0.028 (≈ 0.0888 µM) |  |
| CC(=O)Nc1ccc2[nH]c(=O)n(C3CCCCCC3)c(=O)c2c1 [Example 46, N-(3-Cycloheptyl-2,4-dioxo-1,2,3,4-tetrahydro-quinazolin-6-yl)acetamide] | 0.661 (≈ 2.1 µM) |  |
| CC(=O)Nc1cnc2[nH]c(=O)n([C@H]3CC[C@@H](C(C)(C)C)CC3)c(=O)c2c1 [Example 34, N-[3-(cis-4-tert-Butyl-cyclohexyl)-2,4-dioxo-1,2,3,4-tetrahydro-pyrido[2,3-d]pyrimidin-6-yl)-acetamide] | 0.36 (≈ 1 µM) |  |
| CCC[C@H]1CC[C@H](n2c(=O)[nH]c3ccc(NC(C)=O)cc3c2=O)CC1 [Example 58, N-(2,4-Dioxo-3-((1s,4r)-4-propylcydohexyl)-1,2,3,4-tetrahydroquinazolin-6-yl)acetamide] | 0.007 (≈ 0.0204 µM) |  |
| CCC1CCC(n2c(=O)[nH]c3ccc(N)cc3c2=O)CC1 (racemic) [24 (rac), 6-Amino-3-(4-ethyl-cyclohexyl)-1H-quinazoline-2,4-dione] | 0.022 (≈ 0.0766 µM) |  |
| CC(=O)Nc1ccc2[nH]c(=O)n([C@H]3CC[C@H](C(C)(C)C)CC3)c(=O)c2c1 [Example 49, N-(3-((1r,4r)-4-(tert-butyl)cyclohexyl)-2,4-dioxo-1,2,3,4-tetrahydroquinazolin-6-yl)acetamide] | 0.008 (≈ 0.0224 µM) |  |
| CC(=O)Nc1ccc2[nH]c(=O)n(CCC3CCCC3)c(=O)c2c1 [Example 42, N-(3-(2-cyclopentylethyl)-2,4-dioxo-1,2,3,4-tetrahydroquinazolin-6-yl)acetamide] | 0.713 (≈ 2.26 µM) |  |
| CC(=O)Nc1ccc2[nH]c(=O)n([C@H](C)C3CCCCC3)c(=O)c2c1 [Example 2, (R)—N-(3-(1-cyclohexylethyl)-2,4-dioxo-1,2,3,4-tetrahydroquinazolin-6-yl)acetamide] | 0.724 (≈ 2.2 µM) |  |
| CCC[C@H]1CC[C@@H](n2c(=O)[nH]c3ccc(NC(C)=O)cc3c2=O)CC1 [Example 57, N-(2,4-Dioxo-3-((1r,4s)-4-propylcyclohexyl)-1,2,3,4-tetrahydroquinazolin-6-yl)acetamide] | 0.06 (≈ 0.175 µM) |  |
| CC(=O)Nc1ccc2[nH]c(=O)n([C@H]3CCO[C@@H](C(C)(C)C)C3)c(=O)c2c1 [Example 61, N-(3-((2R,4S)-2-(Tert-butyl)tetrahydro-2H-pyran-4-yl)-2,4-dioxo-1,2,3,4-tetrahydroquinazolin-6-yl)acetamide] | 0.744 (≈ 2.07 µM) |  |
| CC(C)C1CCC(n2c(=O)[nH]c3ccc(N)cc3c2=O)CC1 (racemic) [25 (rac), 6-Amino-3-(4-isopropylcyclohexyl)-1H-quinazoline-2,4-dione] | 0.028 (≈ 0.0929 µM) |  |
| CC(=O)Nc1ccc2[nH]c(=O)n(C(CC3CCCCC3)C(N)=O)c(=O)c2c1 (stereo not shown) [Example 7, 2-(6-Acetamido-2,4-dioxo-1,4-dihydroquinazolin-3(2H)-yl)-3-cyclohexylpropanamide] | 63.6 (≈ 171 µM) |  |
| CC(C)(C)C1CCC(n2c(=O)[nH]c3ccc(-c4ccncc4)cc3c2=O)CC1 (stereo not shown) [Example 21c, 3-(4-(tert-butyl)cyclohexyl)-6-(pyridin-4-yl)quinazoline-2,4(1H,3H)-dione] | 0.892 (≈ 2.36 µM) |  |
| CC(=O)Nc1ccc2[nH]c(=O)n(Cc3cccc(C(F)(F)F)c3)c(=O)c2c1 [Example 43, N-(2,4-dioxo-3-(3-(trifluoromethyl)benzyl)-1,2,3,4-tetrahydroquinazolin-6-yl)acetamide] |  | IC50 (L6, in Rattus norvegicus, 96 h, read-out: Activity (IC50)): 0.804 µg/mL (≈ 2.13 µM) |
| O=c1[nH]c2ccc(-c3cncnc3)cc2c(=O)n1CCC1CCCCC1 [Example 18, 3-(2-Cyclohexylethyl)-6-(pyrimidin-5-yl)quinazoline-2,4(1H,3H)-dione] | 4.93 (≈ 14.1 µM) |  |
| CC(C)[C@H]1CC[C@H](n2c(=O)[nH]c3ccc(N)cc3c2=O)CC1 [25 (trans), 6-Amino-3-((1 r,4r)-4-isopropylcyclohexyl)quinazoline-2,4(1H,3H)-dione] |  | Activity (IC50) (trypomastigotes in rat skeletal myoblasts (L-6 cells), 96 h incubation, CPRG/Nonidet read at 540 nm): 0.008 µg/mL |
| O=C(Cn1ccnc1[N+](=O)[O-])NCc1ccccc1 [Benznidazole, reference compound] |  | IC50 (L6, Benznidazole used as control, same assay, read-out: IC50 of control): 0.5 ± 0.2 µg/mL (≈ 1.92 µM) |
| O=C(Nc1ccc2[nH]c(=O)n(CCC3CCCCC3)c(=O)c2c1)c1ccccc1 [Example 14c, N-(3-(2-Cyclohexylethyl)-2,4-dioxo-1,2,3,4-tetrahydroquinazolin-6-yl)benzamide] | 5.88 (≈ 15 µM) |  |
